The values that follow come from patent US20230331675A1, “AROMATIC ETHYLENE COMPOUND AND PREPARATION METHOD THEREFOR, AND INTERMEDIATE, PHARMACEUTICAL COMPOSITION, AND APPLICATION THEREOF” (GUANGZHOU MAXINOVEL PHARMACEUTICALS CO., LTD., priority 2020, published 2023).

Each structure is given as a SMILES string. pIC50: −log10 of the molar value.

Sequence of PD-1/PD-L1 (Q9NZQ7 19-238): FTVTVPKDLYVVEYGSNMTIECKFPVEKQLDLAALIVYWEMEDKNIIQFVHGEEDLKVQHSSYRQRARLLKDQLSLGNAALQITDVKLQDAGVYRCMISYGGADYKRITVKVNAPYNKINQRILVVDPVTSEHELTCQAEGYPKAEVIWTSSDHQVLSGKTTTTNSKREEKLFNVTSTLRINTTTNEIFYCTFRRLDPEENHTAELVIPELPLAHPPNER

This experiment has as its target PD-1/PD-L1 (Homo sapiens (Human), UniProt Q9NZQ7). In words: Homogeneous time-resolved fluorescence (HTRF) binding assay. The settings on record: CisBio kit, read-out: IC50 of compounds binding to PD-1/PD-L1. The source says:
Effect embodiment 1: Homogenouse time-resolved fluorescence
Homogeneous time-resolved fluorescence (HTRF) binding assay was used to determine the binding ability of the compound of the present disclosure to PD-1/PD-L1.
The purchased kit (CisBio, #64CUS000C-1) contained reagents required for assays such as PD-1, PD-L1, anti-tag1-Eu, Anti-tag2-XL665, dilute buffer, and detection buffer.
1. The compound was formulated to 10 concentrations with a 3-fold gradient with 100% DMSO.
2. The DMSO solution of the compound was added to the dilute buffer, mixed thoroughly, then transferred to a 96-well plate.
3. PD-L1 was diluted with dilute buffer, then added to the above 96-well plate.
4. PD-1 was diluted with dilute buffer and added to the above 96-well plate, which was then incubated at room temperature for 30 minutes.
5. A portion of anti-tag1-Eu and a portion of anti-tag2-XL665 were added to the detection buffer, mixed thoroughly and transferred to the above 96-well plate.
6. The mixture in the above 96-well plate was incubated at room temperature for 1 to 24 hours.
7. HTRF values were read with Envision.
(In general: Time-resolved FRET reads energy transfer from a long-lived donor to a nearby acceptor.)
Regarding `Cc1ccc(OCCCCC#N)c(CN2CCOC[C@H]2C(=O)O)c1/C=C/c1cccc(-c2ccccc2)c1C#N` [Compound 46, (S,E)-4-(2-(2-(2-Cyano-[1,1′-biphenyl]-3-yl)vinyl)-6-(4-cyanobutoxy)-3-methylbenzyl)morpholine-3-carboxylic acid], the pIC50 is less than 5.00.

Take `N#CCOc1cc(/C=C/c2cccc(-c3ccccc3)c2C#N)c(CN2CCCC[C@H]2C(=O)O)cc1Cl` [Compound 47, (S,E)-1-(5-Chloro-2-(2-(2-cyano-[1,1′-biphenyl]-3-yl)vinyl)-4-(cyanomethoxy)benzyl)piperidine-2-carboxylic acid]: the pIC50 is less than 5.00. `Cc1cc(CN2CCCC[C@H]2C(=O)O)c(OCC#N)cc1/C=C/c1cccc(-c2ccccc2)c1C#N` [Compound 48, (S,E)-1-(4-(2-(2-Cyano-[1,1′-biphenyl]-3-yl)vinyl)-2-(cyanomethoxy)-5-methylbenzyl)piperidine-2-carboxylic acid]: the pIC50 is 8.10. Turning to `COCc1cc(/C=C/c2cccc(-c3ccccc3)c2C#N)c(C(F)(F)F)cc1CN1CCCC[C@H]1C(=O)O` [Compound 49, (S,E)-1-(4-(2-(2-Cyano-[1,1′-biphenyl]-3-yl)vinyl)-2-(methoxymethyl)-5-trifluoromethylbenzyl)piperidine-2-carboxylic acid], the pIC50 is 7.73.

As to `COCc1cc(/C=C/c2cccc(-c3ccccc3)c2C#N)c(C(F)(F)F)cc1CN1CCOC[C@H]1C(=O)O` [Compound 50, (S,E)-4-(4-(2-(2-Cyano-[1,1′-biphenyl]-3-yl)vinyl)-2-(methoxymethyl)-5-trifluoromethylbenzyl)morpholine-3-carboxylic acid], the pIC50 was 6.85. Then `[2H]C([2H])([2H])Oc1cc(/C=C/c2cccc(-c3ccccc3)c2C#N)c(CN2CCCC[C@H]2C(=O)O)cc1Cl` [Compound 52, (S,E)-1-(5-Chloro-2-(2-(2-cyano-[1,1′-biphenyl]-3-yl)vinyl)-4-(methoxy-d3)benzyl)piperidine-2-carboxylic acid], with less than 5.00; and `[2H]C([2H])([2H])OCc1cc(/C=C/c2cccc(-c3ccccc3)c2C#N)c(C(F)(F)F)cc1CN1CCOC[C@H]1C(=O)O` [Compound 54, (S,E)-4-(4-(2-(2-Cyano-[1,1′-biphenyl]-3-yl)vinyl)-2-((methoxy-d3)methyl)-5-trifluoromethylbenzyl)morpholine-3-carboxylic acid], with 6.80; and `[2H]C([2H])([2H])c1c(/C=C/c2cc(CN[C@@](C)(CO)C(=O)O)ccc2C(F)(F)F)cccc1-c1ccccc1` [Compound 55], with 7.53. Then `COc1cc(/C=C/c2cccc(-c3ccccc3)c2C#N)c(Cl)cc1CN1CCCC[C@H]1C(=O)O` [Compound 57, (S,E)-1-(5-Chloro-4-(2-(2-cyano-[1,1′-biphenyl]-3-yl)vinyl)-2-methoxybenzyl)piperidine-2-carboxylic acid], with 8.36; and `COc1cc(/C=C/c2cccc(-c3ccccc3)c2C)c(Cl)cc1CN1CCCC[C@H]1C(=O)O` [Compound 58, (S,E)-1-(5-Chloro-2-methoxy-4-(2-(2-methyl-[1,1′-biphenyl]-3-yl)vinyl)benzyl)piperidine-2-carboxylic acid], with 8.17. Under `[2H]C([2H])([2H])Oc1cc(/C=C/c2cccc(-c3ccccc3)c2C)c(Cl)cc1CN1CCCC[C@H]1C(=O)O` [Compound 59, (S,E)-1-(5-Chloro-2-(methoxy-d3)-4-(2-(2-methyl-[1,1′-biphenyl]-3-yl)vinyl)benzyl)piperidine-2-carboxylic acid] stands 8.05; under `[2H]C([2H])([2H])Oc1cc(/C=C/c2cccc(-c3ccccc3)c2C)c(C(F)(F)F)cc1CN1CCCC[C@H]1C(=O)O` [Compound 60, (S,E)-1-(2-(Methoxy-d3)-4-(2-(2-methyl-[1,1′-biphenyl]-3-yl)vinyl)-5-trifluoromethylbenzyl)piperidine-2-carboxylic acid], 9.23; under `[2H]c1c([2H])c([2H])c(-c2cccc(/C=C/c3cc(OC)c(CN4CCCC[C@H]4C(=O)O)cc3C(F)(F)F)c2C)c([2H])c1[2H]` [Compound 61, (S,E)-1-(2-Methoxy-4-(2-(2-methyl-[1,1′-biphenyl]-3-yl-2′,3′,4′,5′,6′-d5)vinyl)-5-trifluoromethylbenzyl)piperidine-2-carboxylic acid], 9.14. In the case of `COc1cc(/C=C/c2cccc(-c3ccccc3)c2C)c(C(F)(F)F)cc1CN1CCCC[C@@H]1C(=O)O` [Compound 62, (R,E)-1-(2-Methoxy-4-(2-(2-methyl-[1,1′-biphenyl]-3-yl)vinyl)-5-trifluoromethylbenzyl)piperidine-2-carboxylic acid], the pIC50 is 8.13. Under `COc1cc(CN2CCCC[C@H]2C(=O)O)c(OC)cc1/C=C/c1cccc(-c2ccccc2)c1C` [Compound 63, (S,E)-1-(2,5-Dimethoxy-4-(2-(2-methyl-[1,1′-biphenyl]-3-yl)vinyl)benzyl)piperidine-2-carboxylic acid] stands 7.52; under `COc1cc(/C(F)=C/c2cccc(-c3ccccc3)c2C)c(C(F)(F)F)cc1CN1CCCC[C@H]1C(=O)O` [Compound 64, (S,Z)-1-(4-(1-Fluoro-2-(2-methyl-[1,1′-biphenyl]-3-yl)vinyl)2-methoxy-5-trifluoromethylbenzyl)piperidine-2-carboxylic acid], 7.53; under `COc1cc(/C(F)=C/c2cccc(-c3ccccc3)c2C)c(C(F)(F)F)cc1CNCCO` [Compound 65, (Z)-2-((4-(1-Fluoro-2-(2-methyl-[1,1′-biphenyl]-3-yl)vinyl)-2-methoxy-5-trifluoromethylbenzyl)amino)-1-ethanol], 7.32. Under `COc1cc(/C(Br)=C/c2cccc(-c3ccccc3)c2C)c(C(F)(F)F)cc1CNCCO` [Compound 66, (Z)-2-((4-(1-Bromo-2-(2-methyl-[1,1′-biphenyl]-3-yl)vinyl)-2-methoxy-5-trifluoromethylbenzyl)amino)-1-ethanol] stands 7.38; under `COc1cc(/C(Br)=C/c2cccc(-c3ccccc3)c2C)c(C(F)(F)F)cc1CN1CCCC[C@H]1C(=O)O` [Compound 67, (S,Z)-1-(4-(1-Bromo-2-(2-methyl-[1,1′-biphenyl]-3-yl)vinyl)-2-methoxy-5-trifluoromethylbenzyl)piperidine-2-carboxylic acid], 7.89; under `COc1cc(/C=C(\Br)c2cccc(-c3ccccc3)c2C)c(C)cc1CN1CCCC[C@H]1C(=O)O` [Compound 68, (S,Z)-1-(4-(2-Bromo-2-(2-methyl-[1,1′-biphenyl]-3-yl)vinyl)-2-methoxy-5-methylbenzyl)piperidine-2-carboxylic acid], 6.77. For `COc1cc(/C=C(\Br)c2cccc(-c3ccccc3)c2C)c(C)cc1CNCCO` [Compound 69, (Z)-2-((4-(2-Bromo-2-(2-methyl-[1,1′-biphenyl]-3-yl)vinyl)-2-methoxy-5-methylbenzyl)amino)-1-ethanol], the pIC50 is 6.58. Then `COc1cc(/C=C/c2cccc(-c3ccccc3)c2C)c(C)cc1CN1CCCC[C@H]1C(=O)O` [Compound 70, (S,E)-1-(2-Methoxy-5-methyl-4-(2-(2-methyl-[1,1′-biphenyl]-3-yl)vinyl)benzyl)piperidine-2-carboxylic acid], with 8.03.
